Measurements as given in US5324730A, “Phenoxyphosphoryloxymethyl cyclobutyl purines” (Nippon Kayaku Kabushiki Kaisha, priority 1990, dated 1994).
Converted amounts (≈) assume the structure as drawn.

How the values were obtained:
[1] = Oral absorbability: plasma concentration of Compound 1a (B^1 = 9-guanyl) in mice after oral or intravenous administration (Method 4); format: in vivo; conditions: Compound 1a (B^1 = 9-guanyl) in plasma, male CDF1 mice; for AUC, intravenous injection / Tmax, intravenous injection: 75 μM/kg intravenous; for AUC, oral administration / Tmax, oral administration: 75 μM/kg oral
Description: Oral absorbability of compounds of this invention were tested according to the following method.
Male CDF1 mice (6-8 weeks in age) (Japan Charles Liver Co.) were used. Each substance to be tested was dissolved into physiological salt solution, and its 75 μM/kg dosage (0.1-0.5 ml/10 g dosage) was administered orally or intravenously. Ten minutes, thirty minutes, one hour and 3 hours after the administration, blood was taken from 2-3 heads of mice by means of an injection tube previously treated with heparin, and the blood was centrifuged at 3,000 rpm for 10 minutes to obtain a plasma. To 200 μl of the plasma was added 9-[2-hydroxy-3-hydroxymethylcyclobutan-1-yl]-guanine (2 μg/10 μl […]) as an internal standard. After diluting it with 4 ml of water, it was washed with 2 ml of water by the use of Ceppack C18 Cartridge (Millipore Waters Co.). It was eluted with 5 ml of methanol, concentrated to dryness, re-dissolved into 200 μl of water, and then subjected to HPLC to measure the concentration of 9-((1R,2R,3S)-2,3-bis(hydroxymethyl)-1cyclobutyl) guanine (Compound 1a, wherein B^1 =9-guanyl), from which maximum concentration (Cmax), time of maximum concentration (Tmax) and the area under the concentration curve (AUC) were determined.
Column: Cosmosil 5C18-P (Nacalai Tesque, 250 mm×4.6 mm, i.d.)
Solvent: 0.1. M citric acid (pH 4): acetonitrile:methanol=50:2:1

[2] = system: human cytomegalo-virus (HCMV); assay: Antiviral activity against HCMV, plaque reduction in human embryonic fibroblasts (Method 2); format: cell-based; conditions: Human betaherpesvirus 5, Fibroblast, plaque number reduced to 50%, 9 or 10 days
Description: Antiviral activity against human cytomegalo-virus (HCMV) which is a DNA virus was tested by the following method.
Confluent monolayers of human embryonic fibroblasts in plastic dishes (diameter: 35 mm) were infected with 100 to 150 plaque forming units of HCMV. After an 1-hour adsorption period at 37° C., the cultures were overlaid with 2 ml of 0.5% agarose in Eagle's minimum essential medium containing 3% fetal calf serum and various concentrations of drugs. The cultures infected with HCMV were fixed and stained at 9 or 10 days after infection. The second agarose overlay containing appropriate concentrations of drugs was added 5 days after infection. Plaque numbers were counted by using a dissecting microscope at ×20 magnification. The antiviral activities of drugs were expressed in terms of median effective concentrations (EC50) which were defined as the drug concentrations that reduced the number of plaques to 50%.

hepatitis B virus (HBV) = assay: Antiviral activity against HBV, inhibition of HBV DNA synthesis in HB611 cells (Method 3); format: cell-based; conditions: 360 h, 50% inhibition of HBV DNA synthesis, 15 days, read-out: ID50 HBV
Description: Antiviral activity against hepatitis B virus (HBV) which is a DNA virus was tested by the following method.
The test was done by using a cell line, HB611, that was established by transfection and continuously produces HBV like particles [Proc. Natl. Acad. Sci. USA, 84, 444-449, 1987]. HB611 cells were maintained in Dulbecco's modified Eagle medium (Gibco) supplemented with 10% fetal bovine serum (Gibco), 100 μg/ml of streptomycin, 100 IU ml of benzyl penicillin (Gibco) and 200 μg/ml of geneticin (Gibco) at 37° C. in 5% CO2 -95% air.
The cells were seeded in 24-well plate (Corning) at a density of 3×10^4 cells/well, using 1.0 ml of the medium. After 2 days of incubation, the medium was replaced with the same medium containing the test compound. The cells were incubated for a further 15 days, during which time the medium containing the drug was exchanged every three days. The cells were then harvested and cellular DNA was prepared [Virology, 169, 213-216, 1989], and digested with restriction enzyme Hind III (Takara Shuzo Co., Ltd.). An aliquot (2-3 μg) was electrophoresed in 1.5% agarose gel, followed by blotting onto a nylon membrane Hybond-N^+ according to Southern [J. Mol. Biol., 98, 503-517, 1975]. The filter was hybridized to random primed 32p labeled HBV DNA probe, and washed twice with 2× standard saline citrate containing 0.1% SDS at 65° C. for 30 min. It was then autoradiographed, and the results were analyzed using a densitometric analyzer (Shimadzu, Chromatoscana S930).
To quantitatively evaluate the inhibitory activity of the compounds, we measured the band areas S, D1, D2 (S, D1 and D2 represent intracellular free HBV DNA derived from replicative intermediates) and I (represents chromosomally integrated HBV DNA) by densitometric analyzer, and calculated the inhibition percentage as follows: [formula]
In table 1, antiviral activity is represented by 50% inhibition doses (ID50) on HBV DNA synthesis.

[3] = system: Herpes simplex 1 virus (HSV-1); assay: Antiviral activity against HSV-1, CPE inhibition in Vero cells (Method 1); format: cell-based; conditions: Human alphaherpesvirus 1, 50% inhibition of CPE, about 72 hours, Neutral Red
Description: Antiviral activity against Herpes simplex 1 virus (HSV-1) which is a DNA virus was tested by the following method.
Vero cells (originated from kidney cells of African Green Monkey) were cultured in MEM medium to which 10% bovine embryo serum had been added. A cell suspension adjusted to a concentration of 200,000 cells/ml was spread onto 96 wells plate (COSTAR) and cultured for 24 hours so that the cells became confluent. To the medium drawn out was added HSV-1 virus, and it was infected for one hour. Then, the virus fluid was drawn out and cultured for about 72 hours in a fresh medium containing agents. The alive cells were stained with a staining solution containing Neutral Red and absorbance at a wavelength of 546 nm (A546) was measured to evaluate the cytopathic effect (CPE).
CPE inhibition (%) was calculated according to the following equation: [formula] and a quantity of sample enough for 50% inhibition of the CPE due to virus was taken as IC50 (μg/ml).

Row | Compound | AUC, intravenous injection [1] [ng·h/mL] | Tmax, intravenous injection [1] | AUC, oral administration [1] [ng·h/mL] | Tmax, oral administration [1] | EC50 [2] [µg/mL] | IC50 (hepatitis B virus (HBV)) [µg/mL] | IC50 [3] [µg/mL]
1 | Nc1nc2c(ncn2[C@@H]2C[C@H](CO)[C@H]2COP(=O)(O)Oc2ccccc2)c(=O)[nH]1 [Compound 13, 9-[(1R,2R,3S)-3-hydroxymethyl-2-(hydroxy-(phenoxy)phosphoryl)oxymethyl-1-cyclobutyl]-guanine] | 2962 | 10 ' | 1122 | 30 ' | – | – | –
2 | Nc1nc2c(ncn2[C@@H]2C[C@H](COP(=O)(O)Oc3ccccc3)[C@H]2CO)c(=O)[nH]1 [Compound 14, 9-[(1R,2R,3S)-2-hydroxymethyl-3-(hydroxy-(phenoxy)phosphoryl)oxymethyl-1-cyclobutyl]-guanine] | 5076 | 10 ' | 2262 | 30 ' | – | – | –
3 | Nc1nc2c(ncn2[C@@H]2C[C@H](COP(=O)(O)Oc3ccccc3Cl)[C@H]2CO)c(=O)[nH]1 [Compound 50, 9-[(1R,2R,3S)-2-hydroxymethyl-3-(hydroxy(2-chlorophenoxy)phosphoryl)oxymethyl-1-cyclobutyl]-guanine] | 3177 | 10 ' | 1526 | 30 ' | 1 to 3 (≈ 2.19 to 6.58 µM) | ~0.1 (≈ 0.219 µM) | 1.13 (≈ 2.48 µM)
4 | Nc1nc2c(ncn2[C@@H]2C[C@H](COP(=O)(O)Oc3cccc(Cl)c3)[C@H]2CO)c(=O)[nH]1 [Compound 53, 9[-(1R,2R,3S)-2-hydroxymethyl-3-(hydroxy(3-chlorophenoxy)phosphoryl)oxymethyl-1-cyclobutyl]-guanine] | 3228 | 10 ' | 1405 | 30 ' | 1 to 3 (≈ 2.19 to 6.58 µM) | 0.1 to 1 (≈ 0.219 to 2.19 µM) | 1.22 (≈ 2.68 µM)
5 | Nc1nc2c(ncn2[C@@H]2C[C@H](COP(=O)(O)Oc3ccc(Cl)cc3)[C@H]2CO)c(=O)[nH]1 [Compound 56, 9-[(1R,2R,3S)-2-hydroxymethyl-3-(hydroxy(4-chlorophenoxy)phosphoryl)oxymethyl-1-cyclobutyl]-guanine] | 3167 | 10 ' | 1762 | 10 ' | 1 to 3 (≈ 2.19 to 6.58 µM) | 0.1 to 1 (≈ 0.219 to 2.19 µM) | 0.699 (≈ 1.53 µM)
6 | Nc1nc2c(ncn2[C@@H]2C[C@H](COP(=O)(O)Oc3ccc(F)cc3)[C@H]2CO)c(=O)[nH]1 [Compound 65, 9-[(1R,2R,3S)-2-hydroxymethyl-3-(hydroxy(4-fluorophenoxy)phosphoryl)oxymethyl-1-cyclobutyl]-guanine] | 6373 | 10 ' | 1712 | 30 ' | 1 to 3 (≈ 2.28 to 6.83 µM) | 0.1 to 1 (≈ 0.228 to 2.28 µM) | 1.13 (≈ 2.57 µM)
7 | Cc1ccc(OP(=O)(O)OC[C@H]2C[C@@H](n3cnc4c(=O)[nH]c(N)nc43)[C@@H]2CO)cc1 [Compound 68, 9-[(1R,2R,3S)-2-hydroxymethyl-3-(hydroxy(4-methylphenoxy)phosphoryl)oxymethyl-1-cyclobutyl]-guanine] | 4116 | 10 ' | 1754 | 30 ' | 0.1 to 1 (≈ 0.23 to 2.3 µM) | 0.1 to 1 (≈ 0.23 to 2.3 µM) | 1.26 (≈ 2.89 µM)
8 | COc1ccc(OP(=O)(O)OC[C@H]2C[C@@H](n3cnc4c(=O)[nH]c(N)nc43)[C@@H]2CO)cc1 [Compound 71, 9-[(1R,2R,3S)-2-hydroxymethyl-3-(hydroxy(4-methoxyphenoxy)phosphoryl)oxymethyl-1-cyclobutyl]-guanine] | 4393 | 10 ' | 1678 | 10 ' | 0.1 to 1 (≈ 0.222 to 2.22 µM) | 0.1 to 1 (≈ 0.222 to 2.22 µM) | 0.873 (≈ 1.93 µM)
